Measurements published in US9839642B2, “Beta-tetrazolyl-propionic acids as metallo-beta-lactamase inhibitors” (priority 2014, dated 2017).
pIC50: −log10 of the molar value. Like-named read-outs stand apart in the source and are kept apart here.

Key:
[1] = test system: Escherichia coli expressing NDM-1 (CLB30016); assay: Antibiotic potentiation activity: synergistic concentration (MITC95) with imipenem, growth by OD600; type: cell-based
Procedure, shortened: (§1)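 MITC95 = lowest inhibitor concentration giving 95% growth inhibition, read by absorbance after 22–24 h at 35° C. Compound range 200 μM to 0.195 μM, imipenem fixed at 1 or 4 μg/ml, bacteria in 1.1×CAMHB from saline suspension diluted 1:100.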

[2] = test system: Serratia marcescens expressing IMP-1 (CL5741); assay: as above; type: cell-based
Procedure, shortened: as §1

[3] = test system: Klebsiella pneumoniae expressing VIM-1 (IHMA599644); assay: as above; type: cell-based
Procedure, shortened: as §1

IMP-1 = IMP-1 (Serratia marcescens, UniProt P52699); assay: Enzyme activity: determination of IC50, fluorescence assay with CCF2-FA substrate; type: biochemical; conditions: CCF2-FA 1.25 μM, 2 hours at 25° C., read-out: IMP1 IC50
Procedure, shortened: (§2)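 In pH 7 phosphate buffer (100 mM) with 10 μM ZnSO4 and 0.005% Tween-20, CCF2-FA substrate (1.25 μM final) was hydrolysed for 2 h at 25 °C by NDM-1, IMP-1 or VIM-1 at 1, 2 or 30 pM in the presence of inhibitor at 20–0.00063 μM. Emission 460 nm/excitation 405 nm; 4-parameter curve fit gave IC50.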

NDM-1 = NDM-1 (Klebsiella pneumoniae, UniProt C7C422); assay: as above; type: biochemical; conditions: CCF2-FA 1.25 μM, 2 hours at 25° C.
Procedure, shortened: as §2

VIM-1 = VIM-1 (Pseudomonas aeruginosa, UniProt A0A0F7KYQ8); assay: as above; type: biochemical; conditions: CCF2-FA 1.25 μM, 2 hours at 25° C., read-out: VIM1 IC50
Procedure, shortened: as §2

[4] = E. coli CLB30016 (NDM-1), 95% inhibition of growth
[5] = S. marcescens CL5741 (IMP-1), 95% inhibition of growth
[6] = K. pneumoniae IHMA599644 (VIM-1), 95% inhibition of growth
[7] = NDM-1 enzyme 1 pM, read-out: NDM1 IC50
[8] = 95% inhibition of bacterial growth, strain CLB30016
[9] = 95% inhibition of bacterial growth, strain CL5741
[10] = 95% inhibition of bacterial growth, strain IHMA599644
[11] = enzyme 1 pM, read-out: NDM1 IC50

Chain of NDM-1 (C7C422 29-270, looked up, species assumed): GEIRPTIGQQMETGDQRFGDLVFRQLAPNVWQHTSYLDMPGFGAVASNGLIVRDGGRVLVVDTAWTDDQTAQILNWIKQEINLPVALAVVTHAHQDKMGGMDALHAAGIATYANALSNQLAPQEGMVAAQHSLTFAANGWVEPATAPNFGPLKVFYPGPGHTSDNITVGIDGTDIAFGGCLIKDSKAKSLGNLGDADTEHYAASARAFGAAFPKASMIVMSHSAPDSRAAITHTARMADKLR
Chain of IMP-1 (P52699 19-246, looked up, species assumed): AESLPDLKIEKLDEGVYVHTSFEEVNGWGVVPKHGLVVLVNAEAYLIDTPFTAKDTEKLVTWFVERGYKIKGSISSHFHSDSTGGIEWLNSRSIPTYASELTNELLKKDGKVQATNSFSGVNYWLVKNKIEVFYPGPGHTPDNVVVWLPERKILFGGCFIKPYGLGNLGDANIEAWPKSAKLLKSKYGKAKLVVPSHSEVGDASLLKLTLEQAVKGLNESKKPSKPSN

| Structure (SMILES) | NDM1 EC30016 MITC95 [1, 4] | IMP1 SM5741 MITC95 [2, 5] | VIM1 KP599644 MITC95 [3, 6] | pIC50 (IMP-1; IMP-1 enzyme 2 pM) | pIC50 (NDM-1; [7]) | pIC50 (VIM-1; VIM-1 enzyme 30 pM) | pIC50 (NDM-1; NDM1 IC50, NDM-1 enzyme 1 pM) | NDM1 EC30016 MITC95 [1, 8] | IMP1 SM5741 MITC95 [2, 9] | VIM1 KP599644 MITC95 [3, 10] | pIC50 (IMP-1; enzyme 2 pM) | pIC50 (NDM-1; [11]) | pIC50 (VIM-1; enzyme 30 pM) |
| --- | --- | --- | --- | --- | --- | --- | --- | --- | --- | --- | --- | --- | --- |
| CCC[C@H](C(=O)O)[C@H](Cc1cccc(N2CCOCC2)c1)c1nn[nH]n1 [Example 365, (2S)-2-[(1S)-2-(3-morpholin-4-ylphenyl)-1-(2H-tetrazol-5-yl)ethyl]pentanoic acid] | 38 µM | 38 µM | 50 µM | 5.82 | 7.09 | 7.70 | – | – | – | – | – | – | – |
| CCC[C@H](C(=O)O)[C@H](CCCc1ccc(N)nc1)c1nnn[nH]1 [Example 406, (2S,3S)-6-(6-aminopyridin-3-yl)-2-propyl-3-(1H-tetrazol-5-yl)hexanoic acid] | 6.25 µM | 37.5 µM | 6.25 µM | 6.09 | 6.37 | 7.83 | – | – | – | – | – | – | – |
| CCC[C@H](C(=O)O)[C@H](Cc1cnc(N2CCNCC2)nc1)c1nnn[nH]1 [Example 288, (S)-2-((S)-2-(2-(piperazin-1-yl)pyrimidin-5-yl)-1-(1H-tetrazol-5-yl)ethyl)pentanoic acid] | 12.5 µM | 150 µM | 12.5 µM | < 4.70 | – | 8.39 | 6.28 | – | – | – | – | – | – |
| CCC[C@H](C(=O)O)[C@H](Cc1cccc(-c2ccc(N3CCNCC3)nc2)c1)c1nn[nH]n1 [Example 355, (2S)-2-[(1S)-2-[3-(6-piperazin-1-ylpyridin-3-yl)phenyl]-1-(2H-tetrazol-5-yl)ethyl]pentanoic acid] | 12.5 µM | 9.4 µM | 18.8 µM | 6.26 | 7.68 | 8.55 | – | – | – | – | – | – | – |
| CCC[C@H](C(=O)O)[C@H](Cc1ccccc1-c1ccc(S(N)(=O)=O)cc1)c1nn[nH]n1 [Example 401, (2S)-2-[(1S)-2-(4′-sulfamoylbiphenyl-2-yl)-1-(2H-tetrazol-5-yl)ethyl]pentanoic acid] | 9.4 µM | 50 µM | 50 µM | 5.72 | 8.41 | 7.89 | – | – | – | – | – | – | – |
| CCC[C@H](C(=O)O)[C@H](Cc1cccc(-c2cccc(CN3CCCCC3)c2)c1)c1nn[nH]n1 [Example 358, (2S)-2-[(1S)-2-[3′-(piperidin-1-ylmethyl)biphenyl-3-yl]-1-(2H-tetrazol-5-yl)ethyl]pentanoic acid] | 38 µM | 12.5 µM | 62 µM | 6.00 | 7.33 | 8.21 | – | – | – | – | – | – | – |
| O=C(O)[C@@H](C1CCCC1)[C@H](Cc1ccc(C2=CCNC2)cc1)c1nnn[nH]1 [Example 61, (2S,3S)-2-cyclopentyl-4-(4-(2,5-dihydro-1H-pyrrol-3-yl)phenyl)-3-(1H-tetrazol-5-yl)butanoic acid] | – | – | – | – | – | – | – | 2.3 µM | 3.9 µM | 6.2 µM | 6.82 | 7.49 | 8.72 |
| CCC[C@H](C(=O)O)[C@H](Cc1ccccc1-c1cccnc1)c1nn[nH]n1 [Example 396, (2S)-2-[(1S)-2-(2-pyridin-3-ylphenyl)-1-(2H-tetrazol-5-yl)ethyl]pentanoic acid] | 9.4 µM | 75 µM | 50 µM | 5.55 | 8.04 | 7.74 | – | – | – | – | – | – | – |
| CCC[C@H](C(=O)O)[C@H](Cc1ccccc1-c1ccccc1)c1nn[nH]n1 [Example 393, (2S)-2-[(1S)-2-biphenyl-2-yl-1-(2H-tetrazol-5-yl)ethyl]pentanoic acid] | 4.7 µM | 25 µM | 75 µM | 6.00 | 8.49 | 8.35 | – | – | – | – | – | – | – |
| CCC[C@H](C(=O)[O-])[C@H](Cc1ccc(C2CCC[N+](C)(C)C2)nc1)c1nnn[nH]1 (stereo partly drawn) [Example 292, (2S)-2-((1S)-2-(6-(1,1-dimethylpiperidin-1-ium-3-yl)pyridin-3-yl)-1-(1H-tetrazol-5-yl)ethyl)pentanoate] | 38 µM | 150 µM | 50 µM | 4.80 | 5.59 | 7.11 | – | – | – | – | – | – | – |
| O=C(O)[C@@H](C1CCCC1)[C@H](Cc1ccc(-c2cn[nH]c2)cc1)c1nnn[nH]1 [Example 63, (2S,3S)-4-(4-(1H-pyrazol-4-yl)phenyl)-2-cyclopentyl-3-(1H-tetrazol-5-yl)butanoic acid] | – | – | – | – | – | – | – | 6.2 µM | 2.0 µM | 18.8 µM | 7.60 | 8.35 | 8.96 |
| CCC[C@H](C(=O)O)[C@H](Cc1cccnc1Cl)c1nnn[nH]1 [Example 87, (2S)-2-[(1S)-2-(2-chloropyridin-3-yl)-1-(1H-tetrazol-5-yl)ethyl]pentanoic acid] | – | – | – | – | – | – | – | 12.5 µM | >200 µM | 25 µM | 5.18 | 6.52 | 8.64 |
| CCC[C@H](C(=O)O)[C@H](Cc1ccccc1F)c1nnn[nH]1 [Example 259, (S)-2-((S)-2-(2-fluorophenyl)-1-(1H-tetrazol-5-yl)ethyl)pentanoic acid] | 9.4 µM | 12.5 µM | 12.5 µM | 6.03 | 7.43 | 8.38 | – | – | – | – | – | – | – |
| CC(C)C[C@H](C(=O)O)[C@H](Cc1ccc(NCCC(C)N)nc1)c1nnn[nH]1 (stereo partly drawn) [Example 318, (2S)-2-[(1S)-2-{6-[(3-aminobutyl)amino]pyridin-3-yl}-1-(1H-tetrazol-5-yl)ethyl]-4-methylpentanoic acid] | 1.6 µM | 18.8 µM | 12.5 µM | 5.70 | 6.43 | 7.96 | – | – | – | – | – | – | – |
| CC(C)C[C@H](C(=O)O)[C@H](Cc1ccc(N2CC(N)C2)nc1)c1nnn[nH]1 [Example 327, (2S)-2-[(1S)-2-[6-(3-aminoazetidin-1-yl)pyridin-3-yl]-1-(1H-tetrazol-5-yl)ethyl]-4-methylpentanoic acid] | 9.4 µM | 38 µM | 38 µM | 5.59 | 6.33 | 7.77 | – | – | – | – | – | – | – |
| CCC[C@H](C(=O)O)[C@H](Cc1cccc(-c2ccc(N3CCOCC3)nc2)c1)c1nn[nH]n1 [Example 346, (2S)-2-[(1S)-2-[3-(6-morpholin-4-ylpyridin-3-yl)phenyl]-1-(2H-tetrazol-5-yl)ethyl]pentanoic acid] | 75 µM | 6.2 µM | 38 µM | 6.49 | 7.68 | 8.66 | – | – | – | – | – | – | – |
| CC(C)C[C@H](C(=O)O)[C@H](Cc1ccc(CN2CCNCC2)c(F)c1)c1nn[nH]n1.O=C(O)C(F)(F)F [Example 446, 4-(4-((2S,3S)-3-carboxy-5-methyl-2-(2H-tetrazol-5-yl)hexyl)-2-fluorobenzyl)piperazin-1-ium 2,2,2-trifluoroacetate] | 12.5 µM | 18.75 µM | 25 µM | 6.42 | 6.77 | 8.16 | – | – | – | – | – | – | – |
| CCC[C@H](C(=O)O)[C@H](Cc1ccc(NCCN2CCCCC2)cc1)c1nn[nH]n1 [Example 217, (2S)-2-[(1S)-2-{4-[(2-piperidin-1-ylethyl)amino]phenyl}-1-(2H-tetrazol-5-yl)ethyl]pentanoic acid] | – | – | – | – | – | – | – | 12.5 µM | 50 µM | 50 µM | 5.62 | 6.30 | 7.42 |
| CC(C)C[C@H](C(=O)O)[C@H](Cc1ccc(NCC2CNCCC2O)nc1)c1nnn[nH]1 (stereo partly drawn) [Example 323, (2S)-2-[(1S)-2-(6-{[(4-hydroxypiperidin-3-yl)methyl]amino}pyridin-3-yl)-1-(1H-tetrazol-5-yl)ethyl]-4-methylpentanoic acid] | 1.6 µM | 6.2 µM | 18.8 µM | 6.03 | 6.92 | 7.77 | – | – | – | – | – | – | – |
